No end group written: not given here.
Tests used:
Conditions in all cases: level of binding: >0.5, 0.25-0.5, <0.25
[1] = target: MHC class I allele B*0702 (B7) (Homo sapiens, UniProt P01889); assay: iScore multi-parametric analysis, B*0702
Method: (§1) Finally, multiparametric analysis is performed on the results from these assays and an iScore is generated. The iScore represents a measure of the overall quality of peptide-MHC binding, enabling candidate peptides to be ranked in order of binding quality and allowing rational prioritisation of peptides for functional cellular follow-up studies.
As part of the validation of the iTopia system, a panel of overlapping peptides derived from the CMV pp 65 protein were used and their binding properties for the A*0201 allele analysed. A number of T cell epitopes restricted by HLA A*0201 had already been identified (by more conventional methodologies) by other researchers for this protein. In the iTopia study, it was reported that an iScore of: >0.5 represented “good quality binding”; between 0.25 and 0.5 represented “medium quality binding”; and <0.25 represented “poor quality binding”.
(§2) Multi-parametric analysis permits the integration of half-life and ED50 parameters in an integrated iScore. This reflects the capability of a peptide to reconstitute with MHC molecules in a stable complex, defining its overall level of binding i.e. the iScore value represents the overall quality of peptide-MHC binding and is used to rank candidate peptides as an indicator of functional relevance. The lead candidate epitopes for each allele are selected for cellular functional analysis to confirm their biological relevance.

[2] = target: MHC class I allele A*0301 (A3) (Homo sapiens, UniProt P04439); assay: iScore multi-parametric analysis, A*0301; assay type: binding
Method: as §1
(§3) As part of the validation of the iTopia system, a panel of overlapping peptides derived from the CMV pp 65 protein were used and their binding properties for the A*0201 allele analysed. A number of T cell epitopes restricted by HLA A*0201 had already been identified (by more conventional methodologies) by other researchers for this protein. In the iTopia study, it was reported that an iScore of: >0.5 represented “good quality binding”; between 0.25 and 0.5 represented “medium quality binding”; and <0.25 represented “poor quality binding”. Six of the 20 peptides which gave a “good” iScore (>0.5) for A*0201, represented previously characterised CMV pp 65 A*0201 epitopes.
(§4) Each MHC class I allele has different binding properties and affinities for peptides which they bind. Therefore, information obtained with HLA A*0201 in which peptides are ranked as good, medium or poor binders using >0.5, 0.25-0.5 and <0.25 as thresholds is not necessarily transferable between alleles. Also, different proteins are likely to have distinct immunogenic profiles and the affinities between peptides and MHC class I molecules will be different between proteins. This may be particularly relevant in the case of self-antigens where immunogenicity is likely to be lower than in foreign proteins.
as §2
(§5) The changes in gradient of the graphs in FIGS. 7 to 10 are indicated by a line which delineates the populations of iScores forming the basis of discrimination for further functional studies.

[3] = target: MHC class I allele A*0201 (A2) (Homo sapiens, UniProt P04439, D140Y/D185E/D98H/E176V/E277Q/G131W/G231S/I119V/I121R/I166T/I218V/L300P/L318F/N151K/N90K/P208A/P217A/Q86G/Q94H/R138H/R169H/T345S); assay: iScore multi-parametric analysis, A*0201; assay type: binding
Method: as §1, §3, §4, §2, §5

[4] = target: MHC class I allele A*0101 (A1) (Homo sapiens, UniProt P04439, A114D/A174V/A182V/D101N/D185E/E176A/E190D/L180R/Q94H/R68K/S129P/T187R/V100A/V91M/W191G); assay: iScore multi-parametric analysis, A*0101; assay type: binding
Method: as §1, §3, §4, §2, §5

Sequence | iScore, MHC Class I Molecule B*0702 [1] | iScore, MHC Class I Molecule A*0301 [2] | iScore, MHC Class I Molecule A*0201 [3] | iScore, MHC Class I Molecule A*0101 [4]
AVSAQPPLP [Peptide 26] | 0 | 0 | 0.062 | 0
AYVRNLFLT [Peptide 46] | 0 | 0 | 0.18 | 0
CVNRNLTEV [Peptide 39] | 0.093 | 0 | 0.05 | 0
DGRLRLARL [Peptide 7] | 0.038 | 0 | 0 | 0
ELAALNLSG [Peptide 60] | 0 | 0 | 0.075 | 0

Further lines, results first:

iScore, MHC Class I Molecule B*0702 [1] | iScore, MHC Class I Molecule A*0301 [2] | iScore, MHC Class I Molecule A*0201 [3] | iScore, MHC Class I Molecule A*0101 [4] | Sequence
0.101 | 0 | 0 | 0 | APSPLVELI [Peptide 86]
0 | 0 | 0.162 | 0 | AQLPSLRHL [Peptide 116]
0.017 | 0 | 0.059 | 0 | ASVSAPSPL [Peptide 84]
0 | 0 | 0.046 | 0 | EHLPSLRQL [Peptide 70]
0 | 0 | 0.096 | 0 | EKMRNRVLL [Peptide 164]
0 | 0 | 0.067 | 0 | ELILNHIVP [Peptide 89]
